Reference: patent US20210324041A1, “COMBINATION THERAPIES” (Shattuck Labs, Inc., priority 2018, published 2021)

B1: PD1-Fc-OX40L: chimeric protein: extracellular domain of PD-1, linker comprising a hinge-CH2-CH3 Fc domain, extracellular domain of OX40L (protein)
chain: LDSPDRPWNPPTFSPALLVVTEGDNATFTCSFSNTSESFVLNWYRMSPSNQTDKLAAFPEDRSQPGQDCRFRVTQLPNGRDFHMSVVRARRNDSGTYLCGAISLAPKAQIKESLRAELRVTERRAEVPTAHPSPSPRPAGQFQSKYGPPCPPCPAPEFLGGPSVFLFPPKPKDQLMISRTPEVTCVVVDVSQEDPEVQFNWYVDGVEVHNAKTKPREEQFNSTYRVVSVLTVLHQDWLSGKEYKCKVSSKGLPSSIEKTISNATGQPREPQVYTLPPSQEEMTKNQVSLTCLVKGFYPSDIAVEWESNGQPENNYKTTPPVLDSDGSFFLYSRLTVDKSRWQEGNVFSCSVLHEALHNHYTQKSLSLSLGKIEGRMDQVSHRYPRIQSIKVQFTEYKKEKGFILTSQKEDEIMKVQNNSVIINCDGFYLISLKGYFSQEVNISLHYQKDEEPLFQLKKVRSVNSLMVASLTYKDKVYLNVTTDNTSLDDFHVNGGELILIHQNPGEFCVL

Legend:
[1] = test system: CT26 (murine colon carcinoma) tumor cells; assay: In vivo anti-tumor activity of combinations of a STING agonist and chimeric proteins (CT26 tumor model); set-up: species or system BALB/C mice; conditions: for effectiveness of combination by order of administration: chimeric protein provided after DMXAA relative to DMXAA following the chimeric protein
Experimental: The in vivo ability of specific combinations of a stimulator of interferon genes (STING) agonist and chimeric proteins to target and reduce tumor volume was determined.
BALB/C mice were inoculated with 500,000 CT26 (murine colon carcinoma) tumor cells. Eight days after inoculation, there was no significant difference between starting tumor volumes among the mice, i.e., volumes were approximately 100 mm^3. Specific combinations were included: DMXAA; anti-PD-1 (RMP1-14); anti-OX40 (OX86); PD1-Fc-OX40L; CSF1R-Fc-CD40L (FIG. 8A); DMXAA then anti-PD1; DMXAA then anti-OX40; DMXAA then PD1-Fc-OX40L; DMXAA then CSF1R-Fc-CD40L (FIG. 8B); PD1-Fc-OX40L then […]; and CSF1R-Fc-CD40L then DMXAA (FIG. 8C). Tumor sizes were assayed every other day until the 27th day after inoculation. Mice that rejected the tumor were re-challenged with a secondary tumor (300,000 CT26 tumor cells) on the opposing flank, and primary/secondary tumors continued to be measured.

[2] = In vivo toxicity in mice
Experimental: (§1) Mice were administered a vehicle or the murine CSF1R-Fc-CD40L chimeric protein and Cynomolgus Macaques were administered a vehicle or the human CSF1R-Fc-CD40L chimeric protein and the relative amount of various cytokines (e.g., CCL4, IL-18, IL-23, and IL-10) were detected and quantified.

[3] = test system: various cytokines (e.g., CCL4, IL-18, IL-23, and IL-10); assay: In vivo serum cytokine expression in Cynomolgus Macaques (Luminex); set-up: species or system Cynomolgus Macaque; conditions: monkeys; human CSF1R-Fc-CD40L; relative to vehicle; FIG. 10
Experimental: (§2) The ability of the CSF1R-Fc-CD40L chimeric protein to induce in vivo cytokine expression in mice and in a non-human primate (Cynomolgus Macaque) was determined.
as §1

[4] = test system: various cytokines (e.g., CCL4, IL-18, IL-23, and IL-10); assay: In vivo serum cytokine expression in mice (Luminex); conditions: murine CSF1R-Fc-CD40L, relative to vehicle, FIG. 10
Experimental: as §2, §1

[5] = In vivo toxicity in monkeys
Experimental: as §1

[6] = test system: CT26 (murine colon carcinoma) tumor cells; assay: In vivo anti-tumor activity of combinations of antibodies directed to immune checkpoint molecules and chimeric proteins (CT26 tumor model); set-up: species or system BALB/C mice; conditions: for tumor volume: relative to vehicle, until the 35th day, antibodies three doses of 100 μg, chimeric protein three doses of 300 μg
Experimental: The in vivo ability of specific combinations of antibodies directed to immune checkpoint molecules and chimeric proteins to target and reduce tumor volume was determined.
BALB/C mice were inoculated with 500,000 CT26 (murine colon carcinoma) tumor cells. Eight days after inoculation, there was no significant difference between starting tumor volumes among the mice, i.e., volumes were approximately 100 mm^3. Specific combinations were included: anti-CTLA-4 (9D9); anti-PD-1 (RMP1-14); anti-OX40 (OX86); PD1-Fc-OX40L; CSF1R-Fc-CD40L (FIG. 3B); anti-CTLA-4 then anti-PD1; anti-CTLA-4 then anti-OX40; anti-CTLA-4 then PD1-Fc-OX40L; anti-CTLA-4 then CSF1R-Fc-CD40L (FIG. 3C); PD1-Fc-OX40L then anti-CTLA-4; and CSF1R-Fc-CD40L then anti-CTLA-4 (FIG. 3D); anti-CTLA-4 then CSF1R-Fc-CD40L; CSF1R-Fc-CD40L then anti-CTLA-4; and CSF1R-Fc-CD40L with anti-CTLA-4 (FIG. 3E and FIG. 3F); and anti-PD-1 then CSF1R-Fc-CD40L; CSF1R-Fc-CD40L then anti-PD-1; and CSF1R-Fc-CD40L with anti-PD-1 (FIG. 4A and FIG. 4B).
In the experiments shown in FIG. 3A to FIG. 3D, tumor sizes were assayed every other day until the 27th day after inoculation. Mice that rejected the tumor were re-challenged with a secondary tumor (300,000 CT26 tumor cells) on the opposing flank, and primary/secondary tumors continued to be measured. In the experiments shown in FIG. 3E to FIG. 4B, tumor sizes were assayed every other day until the 35th day after inoculation. Mice that rejected the tumor were re-challenged with a secondary tumor (300,000 CT26 tumor cells) on the opposing flank, and primary/secondary tumors continued to be measured. Antibodies were given as three doses of 100 μg, the chimeric protein was given as three doses of 300 μg, with antibodies administered before, after, and simultaneously with the chimeric protein (days 7, 9, & 11; or days 12, 14, & 16).

Row | Molecule | anti-tumor activity as a monotherapy ([1]; FIG. 8A) | in vivo toxicity [2] | serum cytokine levels [3] | serum cytokine levels [4] | in vivo toxicity [5] | effectiveness of combination by order of administration [1] | anti-tumor effects compared among treatment groups ([6]; FIG. 3E (anti-CTLA-4 series)) | anti-tumor effects compared among treatment groups ([6]; FIG. 4A (anti-PD-1 series)) | survivors ([6]; by 30 days after inoculation) | improvement in tumor volume reduction by order of administration ([6]; chimeric protein administered after the anti-CTLA-4 antibody, FIG. 3C, 3D) | tumor volume ([6]; FIG. 3E (anti-CTLA-4 series)) | tumor volume ([6]; FIG. 4A (anti-PD-1 series))
1 | Cc1ccc2c(=O)c3cccc(CC(=O)O)c3oc2c1C [DMXAA, 5,6-dimethylxanthenone-4-acetic acid, reference compound] | effective anti-tumor agent |  |  |  |  |  |  |  |  |  |  | 
2 | CSF1R-Fc-CD40L: chimeric protein: extracellular region of CSF1R, linker comprising a hinge-CH2-CH3 Fc region, extracellular region of CD40L; murine and human versions used |  | no in vivo toxicity was observed | greatly enhanced | greatly enhanced | no in vivo toxicity was observed | more effective | Roughly comparable amounts of anti-tumor effects | Roughly comparable amounts of anti-tumor effects | no survivors | most significant improvement | effective in reducing tumor volume | effective in reducing tumor volume
3 | B1 |  |  |  |  |  | more effective |  |  |  |  |  | 
